US8119689B2, “Adjuvants on the basis of bisacyloxypropylcystene conjugates and derivatives and their uses in pharmaceutical compositions” (Helmholtz-Zentrum Fuer Infektionsforschung GmbH, priority 2005, dated 2012)
“Also recorded” adds a separate entry of the source.

Key:
spleen cells [1] = assay: In vitro T cell-mediated proliferative response of spleen cells restimulated with the adjuvant ([3H]thymidine); assay type: cell-based, Balb/c mice; settings: negative control 4armPEG or Ada
Description: FIG. 2: FIG. 2 illustrates the cellular responses of restimulated spleen cells using different concentrations of BPPcysGlyc4armPEG or BPPcysAda as adjuvant. […] Results are expressed as counts per minute (A) and (C) and stimulation indexes (cpm samples/cpm in control non stimulated cells) (B).
Experimental protocol: Spleens were removed and pooled for analysis of cellular immune responses. Cells were grown in RPMI 1640 supplemented with 10% fetal calf serum, 100 U/ml of penicillin, 50 μg/ml of streptomycin, 5×10^−5 M 2-mercaptoethanol and 1 mM L-glutamine (GIBCO BRL, Karlsruhe, Germany) and maintained at 37° C. in a humidified 5% CO2 atmosphere. Lymph node and spleen cell suspensions were adjusted to 5×10^6 cells/ml in complete medium, cells were seeded with 100 μl per well in a flat-bottomed 96-well microtiter plate (Nunc) and plates were incubated for 4 days in the presence of different concentrations of soluble β-gal. Each concentration was tested in quadruplicates. […] Cells were then harvested on paper filters (Filtermat A; Wallac, Freiburg, Germany) by using a cell harvester (Inotech, Wohlen, Switzerland), and the amount of incorporated [^3H]thymidine into the DNA of proliferating cells was determined by a […] (Wallac 1450, Micro-Trilux). The results are expressed as the arithmetic mean of [^3H]thymidine uptake in cpm. […]

[2] = test system: β-gal-specific antibodies; assay: Serum β-gal-specific IgG titers after i.n. or s.c. vaccination (ELISA); assay type: in vivo, BALB/c mice
Description: FIG. 5: FIG. 5 illustrates the humoral responses following vaccination using BPPcysGlyc4armPEG and BPPcysAda, respectively, as adjuvant. Mice were immunised by intranasal (i.n.) and subcutaneous, transcutaneous (topical vaccination) (s.c.) routes with either β-galactosidase (30 μg) alone or β-galactosidase mixed with BPPcysGlyc4armPEG or BPPcysAda on days 0, 14 and 28. At day 38 post primary immunisation, serum samples were collected and the titre of 1-galactosidase-specific antibodies was determined by ELISA. As a control, a group in which animals were immunized with β-galactosidase alone was used (A). In (B) and (C) the kinetic of antigen specific serum IgG is shown for intranasal vaccination (B) and parenteral vaccination (C), respectively. […] Differences were statistically significant at p<0.05 (*) with respect to mice receiving antigen alone. One representative out of four independent experiments is shown. SEM is indicated by vertical lines.
Experimental protocol: six-eight weeks-old female BALB/c (H-2d) mice were purchased from Harlan Winkelmann GmbH (Borchen, Germany) and treated in accordance with local and European Community guidelines. […] Endpoint titers were expressed as the reciprocal log2 of the last dilution, which gave an optical density at 405 nm of 0.1 units above the values of the negative controls after 15 to 30 min of incubation.

spleen cells [3] = assay: Cytokines secreted by in vitro re-stimulated spleen cells of immunized mice (cytometric bead array); assay type: in vivo
Description: Cytokines secreted by in vitro re-stimulated spleen cells were determined in immunized mice by CBA. Results are expressed as cytokine concentration ratios (IL-10 the most prominent detected cytokine) (B) and (D) and the stimulation index (A) and (C).
Cytometric Bead Array: Culture supernatants from proliferating cells were collected on days 2 and 4, and stored at −70° C. Determinations of IFN-γ, TNFα, IL-2, IL-4, IL-5, IL-6, IL-10 and IL-12 were performed by cytometric bead array analysis using the commercial kit from BD, according to the manufacturer's instructions. A standard curve was generated for each cytokine by using the corresponding recombinant murine cytokines (Pharmingen). Probes were incubated at room temperature for additional 2 h. The probes were then analyzed by flow cytometry as described by the protocol of BD.
To characterize the type of Th response stimulated following immunization, the content of IFN-γ, IL-2, IL-4, IL-5, IL-6, IL-10, IL-12 and TNFα was measured in supernatants from in vitro re-stimulated spleen cells (FIG. 7). […] In fact, the strong stimulation of IL-10 secretion is congruent with the role played by this cytokine in the inhibition of cytokine synthesis by Th1 cells, the enhancement of B cells proliferation and the stimulation of IgA production.

CD8+ T cells = assay: IFNγ-producing CD8+ T cells after stimulating splenocytes with MHC cl. I restricted β-Gal or OVA peptides; assay type: in vivo; settings: vs β-Gal or OVA alone-treated groups; intranasal, subcutaneous or intramuscular route (not shown)
Description: To assess the epitope-specific cellular immune response induced by the co-administration of BPPCysAda via intranasal, subcutaneous or intramuscular route, IFNγ-producing CD8+ T cells were analyzed after stimulating splenocytes with the MHC cl. I restricted β-Gal (TPHPARIGL) or OVA ([…]) peptides.

[4] = supernatants of in vitro re-stimulated spleen cells

CCCCCCCCCCCCCCCC(=O)OCC(CSC[C@H](N)C(=O)N[C@H]1[C@@H](O)[C@H](n2cnc3c(N)ncnc32)O[C@@H]1CO)OC(=O)CCCCCCCCCCCCCCC (single isomer, unassigned) [BPPcysAda, S-[2,3-bis(palmitoyloxy)-(2S or 2R)-propyl]-L-cysteinylcarboxy-3′Amino-3′-deoxyadenosine]
proliferative response of restimulated spleen cells (stimulation index) (spleen cells [1]): efficient proliferative response | β-gal-specific serum IgG titers, i.n. administration ([2]; i.n. with β-gal, vs antigen alone): enhanced expression; also recorded: very high titers; also recorded: significantly higher levels | β-gal-specific serum IgG titers, s.c. route ([2]; s.c. co-injection with β-gal, vs β-gal alone): enhanced expression; also recorded: increased | IL-4 levels (spleen cells [3]; all BPPcysAda co-administered groups, intranasal): induced | type of immune response induced (spleen cells [3]; mucosal and parenteral co-administration): Th2 dominated immune response | IFNγ secretion (spleen cells [3]; [4]): weaker increase; also recorded: minor secretion | IL-2 secretion (spleen cells [3]; [4]): induced; also recorded: weaker increase; also recorded: minor secretion | IL-6 secretion (spleen cells [3]; [4]): weaker increase | IL-10 levels (spleen cells [3]; [4]): significantly increased | TNFα secretion (spleen cells [3]; [4]): weaker increase | number of IFNγ-secreting CD8+ T cells (CD8+ T cells): significantly decreased
